Data as given in the NIST ThermoML archive (doi:10.1021/je020140j).
± gives the expanded uncertainty stated by the source.

What was measured:
[1] = 101 kPa, Liquid
[2] = molar heat capacity at constant pressure; details: 101 kPa, Liquid, Small sample (50 mg) DSC
[3] = xn = mol fraction of the nth substance listed; details: 101 kPa, Liquid, x2 = 0
[4] = molar heat capacity at constant pressure; xn = mol fraction of the nth substance listed; details: 101 kPa, Liquid, Small sample (50 mg) DSC, x2 = 0

OCCO [1,2-ethanediol]
Details	mass density, [1] [kg/m3]	molar heat capacity at constant pressure, [2] [J/K/mol]	viscosity, [1] [mPa·s]
293.15 K	1113.7 ± 4.3	147.47 ± 3.6	20.83 ± 0.27
303.15 K	–	149.71 ± 3.7	13.65 ± 0.18
313.15 K	1093.6 ± 4.9	152 ± 3.7	9.443 ± 0.13
323.15 K	1084.7 ± 5.3	153.8 ± 3.8	6.992 ± 0.11
333.15 K	1076.4 ± 5.6	156.22 ± 3.8	5.06 ± 0.082
343.15 K	1067.5 ± 5.9	159.7 ± 3.9	3.987 ± 0.066
353.15 K	1060 ± 6.3	161 ± 4	3.021 ± 0.051
363.15 K	–	164.98 ± 4	–
373.15 K	–	168.45 ± 4.1	–

O [water] + OCCO
Details	mass density, [3] [kg/m3]	molar heat capacity at constant pressure, [4] [J/K/mol]	viscosity, [3] [mPa·s]
293.15 K	–	75.29 ± 1.8	1.002 ± 0.019
303.15 K	–	75.38 ± 1.8	0.797 ± 0.015
313.15 K	–	75.21 ± 1.8	0.653 ± 0.013
323.15 K	–	75.23 ± 1.8	0.547 ± 0.012
333.15 K	983.2 ± 5.1	75.21 ± 1.8	0.467 ± 0.011
343.15 K	977.8 ± 5.5	75.32 ± 1.8	0.405 ± 0.01
353.15 K	971.8 ± 5.8	75.48 ± 1.9	0.356 ± 0.01
